In patent publication US4882171A, “Vanadium-peroxide compositions as insulin mimickers” (priority 1986, dated 1989):

What was measured:
[1] = system: 125I-IGF-2 binding, rat adipocytes; test: IGF-2 binding to rat adipocytes (Example 1, Table 1); type: cell-based; settings: insulin 10 ng/ml, vanadate 1 mM and/or H2O2 1 mM, 15 min preincubation at 37° C.; control = 125I-IGF-2 alone
[2] = system: adipocytes (protein synthesis); test: Protein synthesis in adipocytes, 3H-leucine incorporation (Example 5, Table 2); type: cell-based
Procedure: Adipocytes were isolated by collagenase digestion and protein synthesis was assessed by the incorporation 3,4,5-^3 H-leucine (0.5 uCi/ml) over 1 h at 37° C. into trichloroacetic acid (10%) precipitable material.
This was followed by a 1 h incubation with radiolabelled leucine. The reaction was terminated by the addition of cold TCA and centrifugation. The pellet was counted in a beta counter.

[3] = system: rat adipocytes (lipolysis); test: Lipolysis in rat adipocytes (Example 4); type: cell-based; settings: vanadate with H2O2 10^-3 M, or vanadate alone
[4] = Blood sugar in intact rats after jugular vein injection (Example 6B); type: in vivo, rat (male Sprague-Dawley); settings: 0.5 ml of 2 mM vanadate
Procedure: Solutions were injected into the jugular vein and blood samples were removed for determination of blood sugar by a standard glucose oxidase procedure.

[5] = system: 125I-IGF-II binding, rat adipocytes; test: Binding of labelled IGF-II to rat adipocytes, vanadate dose response (Example 2, FIG. 2); type: cell-based; settings: vanadate alone; % of that seen with maximal doses of insulin
Procedure: Determination of ^125 I-IGF-II binding (shown in FIG. 2) is achieved by incubating adipocytes with vanadate (white circles on Figure); hydrogen peroxide (1mM) plus vanadate (black circles); and insulin (black squares) for 15 minutes at 37 C. Each value shown is the mean ± S.E. (Standard Error) of three separate experiments.

[6] = Blood glucose in live rats after jugular vein injection (Example 6A); type: in vivo, rat; settings: 0.2 to 0.4 ml of 1 mM solution, 200 g rats
Procedure: In live rat studies vanadate (sodium salt) and the reaction mixture (phosphate-buffered saline containing vanadate and H2 O2 at neutral pH) was injected into 200 g rats via the internal jugular vein. […] This decrease was short-lived.

[7] = system: insulin receptor tyrosine kinase; test: Insulin receptor tyrosine kinase activation in adipocytes, 32P incorporation into poly (Glu, Tyr) (Example 3, FIG. 3); type: cell-based, rat
diabetic rats = settings: drinking water; cited from earlier work
[8] = system: 125I-IGF-2 cell surface binding, fat cell; settings: vanadate alone; cited from earlier work
[9] = system: rat adipocytes (lipogenesis); test: Lipogenesis in rat adipocytes (Example 4); type: cell-based; settings: 10^-7 M vanadate with H2O2 10^-3 M equals vanadate alone at 10^-4 M

OO [H2 O2, hydrogen peroxide]
IGF-2 binding, % of control [1]: 138 ± 12 % of control | activity at 100 µM ([2]; Adipocyte, 100 uM (H2O2 concentration), 2 h at 37° C., then 1 h radiolabelled leucine, n=4-5, read-out: Leucine Incorp (% of control ± S.E.)): 105 ± 4.7%

[O]=[V]([O-])([O-])[O-] [Vanadate, vanadate]
IGF-2 binding, % of control [1]: 172 ± 10 % of control | vanadate concentration inhibiting lipolysis maximally [3]: 10^-3 M | effect in lowering blood sugar (in words) [4]: no effect at all | maximal effect relative to maximal doses of insulin (IGF-II binding) [5]: about 60% | effect on blood glucose (in words) [6]: no effect | augmentation of kinase activity over control ([7]; 10^-3 M alone): 32% | Leucine Incorp (% of control ± S.E.) ([2]; 2 uM, 2 h at 37° C., then 1 h radiolabelled leucine, n=2): 101 ± 5.0 % of control | Leucine Incorp (% of control ± S.E.) ([2]; 10 uM, 2 h at 37° C., then 1 h radiolabelled leucine, n=6): 104 ± 3.5 % of control | Leucine Incorp (% of control ± S.E.) ([2]; 50 uM, 2 h at 37° C., then 1 h radiolabelled leucine, n=5): 105 ± 6.0 % of control | Leucine Incorp (% of control ± S.E.) ([2]; 100 uM (H2O2 concentration), 2 h at 37° C., then 1 h radiolabelled leucine, n=4-5): 107 ± 8.0 % of control | stimulation of leucine incorporation (in words) ([2]; vanadate alone, 2-100 uM): does not significantly stimulate leucine incorporation | effect on blood glucose (in words) (diabetic rats): lower blood glucose | effect on cardiac performance (in words) (diabetic rats): improve cardiac performance | insulin mimicking action (in words) [8]: weak mimicker of insulin action | vanadate concentration giving equal augmentation of lipogenesis [9]: 10^-4 M

Insulin: insulin
augmentation of kinase activity over control ([7]; insulin 10 ng/ml alone): 349%
